# Reference: US20250344698A1, “A METHOD OF CONTROLLING WEEDS” (SYNGENTA CROP PROTECTION AG, priority 2022, published 2025)
# Tested on: PPO inhibitor herbicide resistant Amaranthus tuberculatus homozygous for deletion of glycine at codon 210 in PPX2L
# Assay: Postemergence glasshouse test, dead or alive assessment, codon 210 deletion population
# Type: in vivo
# Settings: 14 days after application; for use rate at or beyond which no plants survived application: postemergence
Compound,Average % Survival of 16 repetitions (2 g ai/ha^−1 postemergence) [%],Average % Survival of 16 repetitions (4 g ai/ha^−1 postemergence) [%],Average % Survival of 16 repetitions (8 g ai/ha^−1 postemergence) [%],Average % Survival of 16 repetitions (16 g ai/ha^−1 postemergence) [%],Average % Survival of 16 repetitions (32 g ai/ha^−1 postemergence) [%],Average % Survival of 16 repetitions (64 g ai/ha^−1 postemergence) [%],Average % Survival of 16 repetitions (128 g ai/ha^−1 postemergence) [%],Average % Survival of 16 repetitions (256 g ai/ha^−1 postemergence) [%],use rate at or beyond which no plants survived application [g ai/ha^−1],Average % Survival of 16 repetitions (0.82 g ai/ha^−1 postemergence) [%],Average % Survival of 16 repetitions (1.64 g ai/ha^−1 postemergence) [%],Average % Survival of 16 repetitions (3.28 g ai/ha^−1 postemergence) [%],Average % Survival of 16 repetitions (6.56 g ai/ha^−1 postemergence) [%],Average % Survival of 16 repetitions (13.13 g ai/ha^−1 postemergence) [%],Average % Survival of 16 repetitions (26.25 g ai/ha^−1 postemergence) [%],Average % Survival of 16 repetitions (52.5 g ai/ha^−1 postemergence) [%],Average % Survival of 16 repetitions (105 g ai/ha^−1 postemergence) [%],Average % Survival of 16 repetitions (210 g ai/ha^−1 postemergence) [%],Average % Survival of 16 repetitions (420 g ai/ha^−1 postemergence) [%],Average % Survival of 16 repetitions (840 g ai/ha^−1 postemergence) [%]
"CCOC(=O)C1(C)CC(c2cc(-n3c(=O)cc(C(F)(F)F)n(C)c3=O)c(F)cc2Cl)=NO1 (stereo not drawn) [Compound 8, 3-(2-chloro-4-fluoro-5-(3-methyl-2,6-dioxo-4-trifluoromethyl-3,6-dihydropyrimidin-1(2H)-yl)phenyl)-5-methyl-4,5-dihydroisoxazole-5-carboxylic acid ethyl ester]",100,100,75,12.5,12.5,0,0,0,≥ 64,,,,,,,,,,,
CS(=O)(=O)NC(=O)c1cc(Oc2ccc(C(F)(F)F)cc2Cl)ccc1[N+](=O)[O-] [Fomesafen],,,,,,,,,≥ 210,100,100,100,100,100,100,81.3,62.5,0,0,0
